# Measurements as given in patent publication US20260217763A1, “Novel Peptide and Use Thereof” (Zincure Corp., priority 2022, published 2026).
# Entries after “also recorded” stand apart in the source; their conditions may differ.
# Assays:
# Format in all cases: cell-based
# [1] = tested on: EGFP-α-synuclein A53T aggregates in HEK293T cell line; test: α-synuclein protein aggregates after overexpression, Western blot; conditions: bafilomycin 100 nM alone compared to the control
# Procedure: (§1) FIG. 5 is a result of Western blot analysis of the level of α-synuclein protein expression in protein samples obtained 18 h after treatment of HEK293T cells transfected to express α-synuclein with 100 nM bafilomycin A1 alone or in combination with 30 µM of some variant alloferon peptides according to one embodiment of the present invention, for investigating the degradation of α-synuclein protein aggregates by treatment with some variant alloferon peptides (DALS1, DAL-VS_V(−Q), DAL1, and DALV2) according to one embodiment of the present invention.
# (§2) The present inventors then investigated whether some of the variant peptides (DALS1, DALVS_V, DAL1, DALV2) comprising the amino acid sequences designated as SEQ ID NO: 3 through 16 could resolve SOD1 aggregates that formed after transient transfection of SOD1 protein into the 293T cell line. To this end, EGFP-SOD1 G93A DNA was transiently transfected into the HEK293T cell line using Lipofectamine 2000. After transfection, the cell lines were incubated in a cell culture machine at 37° C. and 5% CO2 for 30 h, and the culture medium was replaced with Minimum Essential Medium (MEM, Gibco, USA). Subsequently, the cells were pretreated with 100 nM bafilomycin for 30 min, which were then treated with μM variant alloferon peptide and incubated for 18 h. […] Then, it was subjected to protein quantification using BCA protein assay kit (Pierce Biotechnology, USA), and centrifuged at 17,000×g for 20 min, where the supernant was discarded and only the cell debris was taken to obtain protein. Subsequently, 5× sample buffer (300 mM Tris, pH 6.8, 10% SDS, 50% Glycerol, 0.1% BPB, 2.5% Mercaptoethanol, 100 mM DTT) was mixed with the quantified sample, denatured at 95° C. for 5 min, and prepared for analysis. […] Protein signals were detected using enhanced chemiluminescence (INTRON Biotechnology, South Korea) and a bio-imaging system (MF-Chemibis, Shimadzu Scientific Korea Corporation, South Korea). […]
# [2] = tested on: GFP-mHttQ74 aggregates in HEK293T cell line; test: Mutant huntingtin protein aggregates after overexpression, Western blot; conditions: bafilomycin 100 nM alone compared to the control
# Procedure: as §1, with “FIG. 6” for “FIG. 5”, “of mutant huntingtin” for “of α-synuclein”, “express mutant huntingtin protein” for “express α-synuclein”, “30 μM” for “30 µM”
# as §2
# [3] = tested on: EGFP-Tau P301L aggregates in HEK293T cell line; test: Mutant tau protein aggregates after overexpression, Western blot; conditions: bafilomycin 100 nM alone compared to control
# Procedure: as §1, with “FIG. 4A” for “FIG. 5”, “of tau” for “of α-synuclein”, “express tau protein” for “express α-synuclein”, “30 μM” for “30 µM”, “invention. FIG. 4B is a graph representing the results of quantifying relative expression of the tau protein. […]” for “invention.”
# The present inventors then investigated whether some of the variant peptides (DALS1, DALVS_V, DAL1, DALV2) comprising the amino acid sequences designated as SEQ ID NO: 3 through 16 could resolve SOD1 aggregates that formed after transient transfection of SOD1 protein into the 293T cell line. […] Then, it was subjected to protein quantification using BCA protein assay kit (Pierce Biotechnology, USA), and centrifuged at 17,000×g for 20 min, where the supernant was discarded and only the cell debris was taken to obtain protein. Subsequently, 5× sample buffer (300 mM Tris, pH 6.8, 10% SDS, 50% Glycerol, 0.1% BPB, 2.5% Mercaptoethanol, 100 mM DTT) was mixed with the quantified sample, denatured at 95° C. for 5 min, and prepared for analysis. […]
# [4] = tested on: H4 cell lines (GL-H4) expressing GFP-linked LC3; test: Analysis of autophagic flow blocked by bafilomycin A-1 (LC3-GFP spots); conditions: bafilomycin (Baf A1) 100 nM alone, GL-H4 cells
# Procedure: FIGS. 2A to 2C are series of fluorescence micrographs of LC3-GFP spots 12 h after treating H4 cell line (GL-H4) that stably overexpresses GFP-LC3 protein with various variant alloferon peptides according to one embodiment of the present invention in combination with bafilomycin at a concentration of 20 μM, showing that autophagic flux blocked by bafilomycin A-1 is restored by the variant alloferon peptides according to one embodiment of the present invention. FIGS. 2D to 2F are graphs showing quantification of the fluorescence intensity of LC3-GFP spots 12 h after treatment of the GL-H4 cell line with the variant alloferon peptides according to one embodiment of the present invention in combination with bafilomycin at a concentration of 20 μM.
# H4 cell line (GL-H4) and HEK293T cell line permanently transfected with GFP-LC3 plasmid were used in the present invention. The cell culture medium was Minimum Essential Medium (MEM, WellGene) supplemented with 10% fetal bovine serum (Hyclone, USA) and antibiotic and antifungal mixture (WellGene, Korea) and cultured in a cell culture machine at 37° C. and 5% CO2.
# To investigate the effect of peptides comprising the amino acid sequences designated as SEQ ID NO: 3 to 16 on autophagic flow, the present inventors treated H4 cell lines (GL-H4) expressing GFP-linked LC3 with the peptides (20 μM) and/or the autophagic inhibitor Bafilomycin A-1 (Baf A1, 100 nM) to inhibit autophagy, and then the effect of the variant alloferon peptides according to one embodiment of the present invention was investigated by fluorescence microscopy analysis.
# [5] = tested on: EGFP-SOD1 G93A aggregates in HEK293T cell line; test: SOD1 protein aggregates after SOD1 overexpression, Western blot; conditions: bafilomycin 100 nM alone compared to the control
# Procedure: as §1, with “3A” for “5”, “SOD1” for “α-synuclein”, “μM” for “µM”, “invention. FIG. 3B is a graph representing the results of quantifying relative expression of the SOD1 protein. In FIG. 3B, * indicates a significant difference compared to the treatment with bafilomycin alone (* p<0.05).” for “invention.”
# The present inventors then investigated whether some of the variant peptides (DALS1, DALVS_V, DAL1, DALV2) comprising the amino acid sequences designated as SEQ ID NO: 3 through 16 could resolve SOD1 aggregates that formed after transient transfection of SOD1 protein into the 293T cell line. To this end, EGFP-SOD1 G93A DNA was transiently transfected into the HEK293T cell line using Lipofectamine 2000. After transfection, the cell lines were incubated in a cell culture machine at 37° C. and 5% CO2 for 30 h, and the culture medium was replaced with Minimum Essential Medium (MEM, Gibco, USA). Subsequently, the cells were pretreated with 100 nM bafilomycin for 30 min, which were then treated with μM variant alloferon peptide and incubated for 18 h. After that, proteinase inhibitors and phosphatase inhibitors (2 μg/ml aprotinin, 2 μg/ml leupeptin, 1 μg/ml pepstatin A, 1 mM phenyl-methylsulfonyl fluoride (PMSF), 1 mM Na3 VO4, 5 mM NaF and 10 mM Na4P2O7) were put into a 6-well culture dish at 200 μl per well to lyse the cells. The obtained cell lysate was first left at 30 min for 4° C. Then, it was subjected to protein quantification using BCA protein assay kit (Pierce Biotechnology, USA), and centrifuged at 17,000×g for 20 min, where the supernant was discarded and only the cell debris was taken to obtain protein. Subsequently, 5× sample buffer (300 mM Tris, pH 6.8, 10% SDS, 50% Glycerol, 0.1% BPB, 2.5% Mercaptoethanol, 100 mM DTT) was mixed with the quantified sample, denatured at 95° C. for 5 min, and prepared for analysis. Then, electrophoresis was performed using 8% to 15% SDS-polyacrylamide gel, and the proteins separated by their sizes were transferred to polyvinylidene difluoride (PVDF) membranes (Millipore, USA). The protein-transferred membranes were then blocked with 3% skim milk powder in TBST for 1 h. […] Protein signals were detected using enhanced chemiluminescence (INTRON Biotechnology, South Korea) and a bio-imaging system (MF-Chemibis, Shimadzu Scientific Korea Corporation, South Korea).
compound,measurement,setting,value
"CO/C1=C\C(C)=C\[C@@H](C)[C@@H](O)[C@@H](C)C/C(C)=C/C=C/[C@H](OC)[C@@H]([C@@H](C)[C@@H](O)[C@H](C)[C@@]2(O)C[C@@H](O)[C@H](C)[C@@H](C(C)C)O2)OC1=O [bafilomycin, Bafilomycin A-1, reference compound]",α-synuclein protein aggregates,[1],increased
same,mutant huntingtin protein aggregates,[2],increased
same,mutant tau protein aggregates,[3],increased
same,number and size of LC3 spots,[4],significantly increased; also recorded: significant increase in the number and size of LC3 spots
same,SOD1 protein aggregates,[5],increased
